Structures are written as SMILES. The source made the active and inactive calls. The calls are words filed in the database; no cut-off is given here.

The values below come from ChEMBL document CHEMBL2346571 (Bioorg Med Chem, 2013).

One assay deals with Cannabinoid receptor 1 (Homo sapiens, UniProt P21554). Briefly: Displacement of [3H]-CP55940 from human CB1 receptor after 90 mins by liquid scintillation spectrophotometer analysis.
For another assay, the target named is Cannabinoid receptor 2 (Homo sapiens, UniProt P34972). Briefly: Displacement of [3H]-CP55940 from human CB2 receptor after 90 mins by liquid scintillation spectrophotometer analysis.
Chain of Cannabinoid receptor 2 (P34972 whole entry): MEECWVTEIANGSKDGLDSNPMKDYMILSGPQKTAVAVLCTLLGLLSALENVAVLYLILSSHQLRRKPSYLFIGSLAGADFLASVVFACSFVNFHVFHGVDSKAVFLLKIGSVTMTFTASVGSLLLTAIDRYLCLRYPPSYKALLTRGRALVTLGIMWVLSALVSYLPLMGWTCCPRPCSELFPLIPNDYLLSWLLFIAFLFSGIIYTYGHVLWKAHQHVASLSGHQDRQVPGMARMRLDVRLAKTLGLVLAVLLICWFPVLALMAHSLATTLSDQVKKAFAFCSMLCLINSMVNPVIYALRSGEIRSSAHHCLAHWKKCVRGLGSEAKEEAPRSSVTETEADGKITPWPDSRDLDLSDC
In assay [1] the test system is Rattus norvegicus. Briefly: Antiobesity activity in Wistar rat assessed as reduction of food intake at 3 mg/kg, ip. The format is functional, organism-based. On the set-up: dose 3 mg/kg.
Assay [2] deals with Rattus norvegicus. Briefly: Antiobesity activity in Wistar rat assessed as reduction of food intake at 3 mg/kg, ip after 30 to 240 mins. In kind it is functional, organism-based. Also on record: dose 3 mg/kg.
Assay [3] concerns Rattus norvegicus. Briefly: Antiobesity activity in Wistar rat assessed as reduction of food intake at 3 mg/kg, ip after 30 mins. The format is functional, organism-based. On the set-up: dose 3 mg/kg.
The test system of assay [4] is Rattus norvegicus. Briefly: Antiobesity activity in Wistar rat assessed as reduction of food intake at 3 mg/kg, ip after 60 to 240 mins. The format is functional, organism-based. On the set-up: dose 3 mg/kg.
In assay [5] the test system is Rattus norvegicus. Briefly: Increase of food intake in Wistar rat at 3 mg/kg, ip after 30 to 240 mins. In kind it is functional, organism-based. On the set-up: dose 3 mg/kg.

Chain of Cannabinoid receptor 1 (P21554 whole entry): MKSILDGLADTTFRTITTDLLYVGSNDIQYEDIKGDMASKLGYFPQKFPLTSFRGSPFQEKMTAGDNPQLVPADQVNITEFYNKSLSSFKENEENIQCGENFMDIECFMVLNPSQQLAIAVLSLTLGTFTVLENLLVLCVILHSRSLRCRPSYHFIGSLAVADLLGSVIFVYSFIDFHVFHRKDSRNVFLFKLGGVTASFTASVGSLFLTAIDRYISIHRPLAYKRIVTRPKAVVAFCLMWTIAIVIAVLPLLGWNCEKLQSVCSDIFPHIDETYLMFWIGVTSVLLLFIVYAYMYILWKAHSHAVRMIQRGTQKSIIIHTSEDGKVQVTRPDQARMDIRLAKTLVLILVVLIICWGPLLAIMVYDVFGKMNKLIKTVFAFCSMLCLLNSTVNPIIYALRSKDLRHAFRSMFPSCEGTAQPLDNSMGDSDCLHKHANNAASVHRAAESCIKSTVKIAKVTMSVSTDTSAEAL

With `CCCCCCc1cc(-c2ccc(Cl)cc2)n(-c2ccc(Cl)cc2Cl)n1`, the Ki at Cannabinoid receptor 1 and at Cannabinoid receptor 2 was over 40 µM each time.

Consider `CCCCCc1cc(-c2ccc(Cl)cc2)n(-c2ccc(Cl)cc2Cl)n1`, for which the Ki is over 40 µM on Cannabinoid receptor 1 and 0.458 µM at Cannabinoid receptor 2. In addition, the outcome with Rattus norvegicus [1] was Active.

Consider `CCCCCCCCCCCCCCCCNC(=O)c1nn(-c2ccccc2)c(-c2ccccc2)c1C`, for which the Ki at Cannabinoid receptor 1 and at Cannabinoid receptor 2 was over 10 µM in each case. For the same molecule, the result in the assay on Rattus norvegicus [2] was Active.

In the case of `O=C(NN1CCCCC1)c1cc(-c2ccccc2)n(-c2ccccc2)n1`, the Ki at Cannabinoid receptor 1 was found to be 4.59 µM; on Cannabinoid receptor 2, 27.9 µM. Moreover, the outcome with Rattus norvegicus [3] was inactive. Also, the outcome in the assay on Rattus norvegicus [4] was Active.

On to `CCCCCCCC/C=C\CCCCCCCCNC(=O)c1cc(-c2ccccc2)n(-c2ccccc2)n1`, for which the inhibition constant Ki on Cannabinoid receptor 1 and on Cannabinoid receptor 2 was over 40 µM throughout. The result with Rattus norvegicus [2] was inactive.

As to `CCCCCCc1nc(-c2ccc(Cl)cc2)n(-c2ccc(Cl)cc2Cl)n1`, the Ki at Cannabinoid receptor 1 was determined as 0.829 µM; on Cannabinoid receptor 2 it was 3.08 µM.

On to `CCCCCc1cc(-c2ccccc2)n(-c2ccccc2)n1`, for which the Ki amounted to 6.16 µM at Cannabinoid receptor 1 and 2.94 µM at Cannabinoid receptor 2.

As for `CCCCCCCC/C=C\CCCCCCCCNC(=O)c1nc(-c2ccc(Cl)cc2)n(-c2ccc(Cl)cc2)n1`, the Ki on Cannabinoid receptor 1 and at Cannabinoid receptor 2 was over 40 µM in each case. For the same molecule, the result with Rattus norvegicus [2] was inactive.

For `CCCCCCCCCCCCCCCCNC(=O)c1nc(-c2ccc(Cl)cc2)n(-c2ccc(Cl)cc2)n1`, the Ki on Cannabinoid receptor 1 and on Cannabinoid receptor 2 was over 10 µM in each case. The result in the assay with Rattus norvegicus [2] was Active.

`Cc1c(C(=O)NN2CCCCC2)nn(-c2ccccc2)c1-c1ccccc1`: the Ki was found to be 9.69 µM on Cannabinoid receptor 1 and 18.2 µM at Cannabinoid receptor 2. For the same molecule, the result with Rattus norvegicus [5] was Active.

In the case of `CCCCCCCC/C=C\CCCCCCCCNC(=O)c1nn(-c2ccccc2)c(-c2ccccc2)c1C`, the Ki at Cannabinoid receptor 1 and at Cannabinoid receptor 2 was over 40 µM in each case. Also, in the assay with Rattus norvegicus [2], the result was inactive.

For the molecule `CCCCCCCCCCCCCCCCNC(=O)c1cc(-c2ccccc2)n(-c2ccccc2)n1`, the Ki on Cannabinoid receptor 1 was over 40 µM; on Cannabinoid receptor 2 it was over 10 µM. The result with Rattus norvegicus [2] was Active.
